From PubChem BioAssay AID743503 (Broad Institute, 2014) come the findings set out here.

Active and inactive are the calls of the source.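 The calls were made as follows: active = IC50 under 35 µM for lowering the luciferase reporter signal in dopamine receptor counterscreen cells; inactive = IC50 over 35 µM.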 Some results are limits rather than exact numbers.

In this assay the test system is HEK293 dopamine receptor CRE-luciferase, luminescence. Put plainly: inhibition of dopamine-driven CRE reporter signal – cell-based, HEK293, luminescence, dry powder, set 2, counter-screen for LGR2 antagonist project, dose response (AID 743503).
As for `C[C@H](CO)N1C[C@H](C)[C@H](CN(C)C(=O)Nc2ccc3ccccc3c2)OCCCC[C@H](C)Oc2ccc(NC(=O)C3CCCCC3)cc2C1=O`, the IC50 is > 35 µM (inactive).
`Cc1ccc(NC(=O)N(C)C[C@@H]2OCCCC[C@H](C)Oc3ccc(NC(=O)C4CCCCC4)cc3C(=O)N([C@H](C)CO)C[C@@H]2C)cc1`: the IC50 is > 35 µM (inactive).
As for `C[C@H](CO)N1C[C@H](C)[C@H](CN(C)C(=O)Nc2cccc3ccccc23)OCCCC[C@H](C)Oc2ccc(NC(=O)C3CCCCC3)cc2C1=O`, the IC50 was > 35 µM (inactive).
The result for `C[C@H](CO)N1C[C@H](C)[C@H](CN(C)C(=O)Nc2ccc(F)cc2)OCCCC[C@H](C)Oc2ccc(NC(=O)C3CCCCCC3)cc2C1=O` reads > 35 µM (inactive); that for `C[C@H](CO)N1C[C@H](C)[C@H](CN(C)C(=O)Nc2cccc(F)c2)OCCCC[C@H](C)Oc2ccc(NC(=O)C3CCCCC3)cc2C1=O`, > 35 µM (inactive).
As for `C[C@H](CO)N1C[C@H](C)[C@H](CN(C)C(=O)Nc2ccccc2F)OCCCC[C@H](C)Oc2ccc(NC(=O)C3CCCCC3)cc2C1=O`, the figure is > 35 µM (inactive).
Consider `C[C@H]1CCCCO[C@@H](CN(C)C(=O)Nc2cccc3ccccc23)[C@@H](C)CN([C@@H](C)CO)C(=O)c2cc(NC(=O)C3CCCCC3)ccc2O1`, for which the IC50 is > 35 µM (inactive).
With `C[C@@H]1CN([C@@H](C)CO)C(=O)c2cc(NC(=O)C3CCCCC3)ccc2O[C@@H](C)CCCCO[C@H]1CN(C)C(=O)Nc1cccc2ccccc12`, the IC50 was > 35 µM (inactive).
As for `C[C@H](CO)N1C[C@H](C)[C@H](CN(C)C(=O)Nc2ccc(Cl)cc2)OCCCC[C@H](C)Oc2ccc(NC(=O)C3CCCCC3)cc2C1=O`, the figure is > 35 µM (inactive); as for `C[C@H](CO)N1C[C@H](C)[C@H](CN(C)C(=O)Nc2ccc(F)cc2)OCCCC[C@H](C)Oc2ccc(NC(=O)C3CCCC3)cc2C1=O`, > 35 µM (inactive).
